Source: paper PMC9295122, “Sialic Acid Derivatives Inhibit SiaT Transporters and Delay Bacterial Growth” (ACS Chemical Biology, 2022)
Read-outs that look alike come from different tables or passages of the source.

Legend:
PmSiaT = molecular target: T1, PmSiaT (Proteus mirabilis, UniProt B4EZY7); assay: nanoDSF thermal shift assay, PmSiaT; type: binding; settings: for Average 1 / Average 2 / Average 3 / Replicate 1 / Replicate 2 / Replicate 3: PmSiaT Tm; for Average 1: average of experiment 1; for Average 2: average of experiment 2; for Average 3: average of experiment 3; for Replicate 1: experiment 1, second capillary; for Replicate 2: experiment 2, second capillary; for Replicate 3: experiment 3, second capillary; for Tm 1: experiment 1, first capillary; for Tm2: experiment 2, first capillary; for Tm 3: experiment 3, first capillary; for ΔTm at 1250 µM: read-out: ΔTm average overall
T1 construct: made in house
T1 sequence (B4EZY7 1-496): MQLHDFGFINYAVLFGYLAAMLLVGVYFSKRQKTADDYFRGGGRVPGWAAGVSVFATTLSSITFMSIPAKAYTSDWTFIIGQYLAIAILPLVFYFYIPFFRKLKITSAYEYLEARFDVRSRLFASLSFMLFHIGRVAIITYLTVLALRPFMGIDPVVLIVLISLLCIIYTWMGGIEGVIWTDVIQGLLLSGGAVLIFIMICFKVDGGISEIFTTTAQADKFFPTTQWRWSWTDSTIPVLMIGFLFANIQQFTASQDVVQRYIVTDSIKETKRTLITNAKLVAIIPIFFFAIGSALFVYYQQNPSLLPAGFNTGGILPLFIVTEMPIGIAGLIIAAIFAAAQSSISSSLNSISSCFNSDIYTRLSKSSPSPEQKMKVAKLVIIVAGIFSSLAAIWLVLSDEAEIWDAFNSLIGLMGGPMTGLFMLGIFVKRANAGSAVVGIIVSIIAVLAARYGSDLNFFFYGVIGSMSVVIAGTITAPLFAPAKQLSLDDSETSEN
Protocol: (§1) Nano-differential scanning fluorimetry (nanoDSF) is a high-throughput method that relies on the thermal stabilization of the folded protein state by a bound ligand.[33]
(§2) The melting points of protein–inhibitor complexes were measured on a Prometheus NT.48 instrument from NanoTemper Technologies. Solutions containing the protein at 2 μM in phosphate buffered saline with 0.0174% (w/v) dodecylmaltoside (DDM) and the ligand at 1.25 mM were loaded onto standard capillaries by NanoTemper. The temperature was increased from 25 to 95 °C at a ramp rate of 1 °C/min. The fluorescence was recorded at 330 and 350 nm and as a ratio of the two wavelengths.
(§3) The intensity ratio and its first derivative were calculated using manufacturer’s software (PR.ThermControl, version 2.1.2).
(§4) The melting temperatures have been measured in 3 separate experiments. In each experiment, two capillaries were included per compound, having therefore 2 technical replicates per experiment. In the table all data is presented. Tm1 and Replicate 1 represent the two replicates of the first experiment. Average 1 is the average between Tm 1 and Replicate 1. ΔTm 1 is the thermal shift when compared to the Tm of Neu5Ac. This is calculated from Average 1. The ΔTm presented in the article are the ΔTm average overall, which represent the overall average of the averages from the three experiments. The standard deviation (SD) is calculated from the […]

SaSiaT = SaSiaT (Staphylococcus aureus, UniProt A0A0H2XJ46); assay: nanoDSF thermal shift assay, SaSiaT; type: binding; settings: for Average 1 / Average 2 / Average 3 / Replicate 1 / Replicate 2 / Replicate 3: SaSiaT Tm; for Average 1: average of experiment 1; for Average 2: average of experiment 2; for Average 3: average of experiment 3; for Replicate 1: experiment 1, second capillary; for Replicate 1 / Replicate 2 / Replicate 3 / Tm 1 / Tm2 / Tm 3 / Overall average (Tm): 1.25 mM; for Replicate 2: experiment 2, second capillary; for Replicate 3: experiment 3, second capillary; for Tm 1 / Tm2 / Tm 3 / Overall average (Tm): SaSiaT; for Tm 1: experiment 1, first capillary; for Tm2: experiment 2, first capillary; for Tm 3: experiment 3, first capillary; for Overall average (Tm): three experiments
Protocol: as §1, §2, §3, §4

[1] = PmSiaT, experiment 1, vs Neu5Ac, read-out: ΔTm 1
[2] = PmSiaT, experiment 2, vs Neu5Ac, read-out: ΔTm 2
[3] = PmSiaT, experiment 3, vs Neu5Ac, read-out: ΔTm 3
[4] = PmSiaT, three experiments, 1.25 mM
[5] = PmSiaT, three experiments, vs Neu5Ac, 1.25 mM

Sequence of SaSiaT (A0A0H2XJ46 entry or part of it): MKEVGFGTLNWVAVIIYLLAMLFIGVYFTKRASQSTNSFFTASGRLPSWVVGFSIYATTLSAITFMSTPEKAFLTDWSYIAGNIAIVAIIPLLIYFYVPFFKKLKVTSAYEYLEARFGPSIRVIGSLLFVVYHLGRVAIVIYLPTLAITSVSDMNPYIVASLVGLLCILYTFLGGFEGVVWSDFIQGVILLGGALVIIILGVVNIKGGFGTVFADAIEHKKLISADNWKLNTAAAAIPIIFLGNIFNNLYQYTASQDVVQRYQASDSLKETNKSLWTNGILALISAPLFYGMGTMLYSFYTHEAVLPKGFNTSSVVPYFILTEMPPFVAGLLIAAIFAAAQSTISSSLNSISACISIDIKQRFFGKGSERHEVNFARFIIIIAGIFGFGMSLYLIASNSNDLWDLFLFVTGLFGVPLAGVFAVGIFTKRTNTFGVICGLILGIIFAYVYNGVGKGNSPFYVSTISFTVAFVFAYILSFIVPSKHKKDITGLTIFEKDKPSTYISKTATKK

Row | SMILES | Average 1 (PmSiaT) | Average 2 (PmSiaT) | Average 3 (PmSiaT) | Replicate 1 (PmSiaT; 1.25 mM) | Replicate 2 (PmSiaT; 1.25 mM) | Replicate 3 (PmSiaT; 1.25 mM) | Tm 1 (PmSiaT; PmSiaT, 1.25 mM) | Tm2 (PmSiaT; PmSiaT, 1.25 mM) | Tm 3 (PmSiaT; PmSiaT, 1.25 mM) | Tm average overall (PmSiaT; [4]) | Average 1 (SaSiaT) | Average 2 (SaSiaT) | Average 3 (SaSiaT) | Replicate 1 (SaSiaT) | Replicate 2 (SaSiaT) | Replicate 3 (SaSiaT) | Tm 1 (SaSiaT) | Tm2 (SaSiaT) | Tm 3 (SaSiaT) | Overall average (Tm) (SaSiaT) | also measured
1 | CC(=O)NC1C(O)CC(O)(C(=O)O)OC1C(O)C(O)CI (stereo not drawn) [Compound 8e] | 46.9 °C | 47.2 °C | 47.3 °C | 46.7 °C | 47.2 °C | 47.2 °C | 47.2 °C | 47.3 °C | 47.3 °C | 47.1 °C | 49.3 °C | 49.0 °C | 49.5 °C | 49.3 °C | 48.9 °C | 49.1 °C | 49.2 °C | 49.0 °C | 49.9 °C | 49.3 °C | ΔTm (PmSiaT; [1]): -2.1 °C; ΔTm (PmSiaT; [2]): -2 °C; ΔTm (PmSiaT; [3]): -2 °C; ΔTm at 1250 µM (PmSiaT; [5]): -2 °C
2 | CCC(=O)NC1C(O)CC(O)(C(=O)O)OC1C(O)C(O)CO (stereo not drawn) [Compound 6a] |  | 46.8 °C | 46.7 °C | 46.8 °C | 46.8 °C | 46.6 °C | 46.8 °C | 46.8 °C | 46.7 °C | 46.8 °C | 40.8 °C | 41.9 °C | 42.2 °C | 40.9 °C | 41.8 °C | 42.1 °C | 40.8 °C | 42.0 °C | 42.3 °C | 41.6 °C | ΔTm (PmSiaT; [1]): -2.2 °C; ΔTm (PmSiaT; [2]): -2.4 °C; ΔTm (PmSiaT; [3]): -2.6 °C; ΔTm at 1250 µM (PmSiaT; [5]): -2.4 °C
3 | CC(=O)NC1C(OCc2ccc(F)cc2)CC(O)(C(=O)O)OC1C(O)C(O)CO (stereo not drawn) [Compound 3b] | 53.2 °C | 53.2 °C | 53.1 °C | 53.4 °C | 53.4 °C | 53.2 °C | 53.1 °C | 53.1 °C | 53.0 °C | 53.2 °C | 56.4 °C | 56.2 °C | 56.7 °C | 56.4 °C | 56.2 °C | 56.4 °C | 56.4 °C | 56.3 °C | 56.9 °C | 56.4 °C | ΔTm (PmSiaT; [1]): 4.2 °C; ΔTm (PmSiaT; [2]): 4 °C; ΔTm (PmSiaT; [3]): 3.8 °C; ΔTm at 1250 µM (PmSiaT; [5]): 4 °C
4 | O=C(CO)N[C@H]1[C@H]([C@H](O)[C@H](O)CO)OC(O)(C(=O)O)C[C@@H]1O (stereo partly drawn) [Neu5Gc, 5-N-glycolyl neuraminic acid, reference compound] | 48.0 °C | 48.1 °C | 48.0 °C | 48.0 °C | 48.0 °C | 48.0 °C | 47.9 °C | 48.1 °C | 48.0 °C | 48.0 °C | 53.3 °C | 53.3 °C | 53.6 °C | 53.3 °C | 53.4 °C | 53.6 °C | 53.3 °C | 53.2 °C | 53.6 °C | 53.4 °C | ΔTm at 1250 µM (PmSiaT): -1.2 °C
5 | CC(=O)N[C@H]1[C@H]([C@H](O)[C@H](O)CO)OC(C(=O)O)=C[C@@H]1O [Compound 9, 2-deoxy-2,3-didehydro-N-acetylneuraminic acid, reference compound] | 45.9 °C | 46.2 °C | 46.2 °C | 45.7 °C | 46.1 °C | 46.3 °C | 46.1 °C | 46.3 °C | 46.2 °C | 46.1 °C | 45.1 °C | 45.8 °C | 45.9 °C | 45.2 °C | 46.4 °C | 46.4 °C | 45.0 °C | 45.2 °C | 45.4 °C | 45.6 °C | 
6 | CC(C)C(=O)NC1C(O)CC(O)(C(=O)O)OC1C(O)C(O)CO (stereo not drawn) [Compound 6b] |  | 47.1 °C | 47.0 °C | 47.1 °C | 47.0 °C | 47.0 °C | 47.1 °C | 47.2 °C | 47.0 °C | 47.1 °C | 45.1 °C | 44.6 °C | 45.2 °C | 45.0 °C | 44.6 °C | 45.1 °C | 45.1 °C | 44.6 °C | 45.3 °C | 45.0 °C | ΔTm (PmSiaT; [1]): -1.9 °C; ΔTm (PmSiaT; [2]): -2.1 °C; ΔTm (PmSiaT; [3]): -2.3 °C; ΔTm at 1250 µM (PmSiaT; [5]): -2.1 °C
